Results from patent US7166688B1, “Chelation compositions” (LidoChem, Inc., priority 2000, dated 2007).
Values belong to the compound of their own block, whether it stands above or below them.

Legend:
Corn [1] = assay: Foliar applied IDS chelated minerals, tissue analysis, corn; assay type: in vivo
Procedure: (§1) An experimental trial was completed testing the efficacy of the Iminodisuccinates (IDS) of this invention on five different crops. Below is the protocol and tissue analysis for both soil and foliar applied iminodisuccinate chelated mineral salts.
(§2) A stock solution for foliar application was prepared by blending 6000 ml of water with T-DAT 09, (Harcross Chemical Company, USA) a surfactant, added to spray mix at 2 drops per liter. • 1). 5 ml of 9% zinc was added to 1 liter of stock solution. • 2). 5 ml of 5% copper was added to 1 liter of stock solution. • 3). 5 ml of 5% manganese was added to 1 liter of stock solution. • 4). 5 ml of 5% Iron was added to 1 liter of stock solution. • 5). 4 ml of 9% zinc, 1 ml of 5% copper, 1 ml of 5% manganese, and 1 ml of 5% iron was added to 1 liter of stock solution. • 6). Stock solution without further addition.
(§3) All plants were sprayed until wet. Harvested material was placed in an oven for one day and sent to the lab for tissue analysis. Harvesting occurred thirty days after planting and some plants had not grown enough to get complete lab results reported. The harvested corn plants were cut at the whirl to insure only new leaves would be tested. The soybeans were clipped above the cotyledon. The alfalfa and clover were removed from the soil and the roots were removed. The wheat was cut at the tillering node.

Wheat [2] = assay: Foliar applied IDS chelated minerals, tissue analysis, wheat; assay type: in vivo
Procedure: as §1, §2, §3

Clover [3] = assay: Foliar applied IDS chelated minerals, tissue analysis, clover; assay type: in vivo
Procedure: as §1, §2, §3

Soybean = assay: Foliar applied IDS chelated minerals, tissue analysis, soybeans; assay type: in vivo
Procedure: as §1, §2, §3

Clover [4] = assay: Soil applied IDS chelated minerals with 10-34-0, tissue analysis, clover; assay type: in vivo
Procedure: as §1
(§4) A). The control pots were watered without any further treatments.
(§5) B). An ammonium polyphosphate stock solution was prepared by adding 50 ml of the 10-34-0 to 4000 ml of water. Treated plants received 100 ml of the stock solution.
(§6) (C). The Zinc stock solution was prepared by blending 10 ml of IDS chelated 9% Zinc to a blend of 50 ml of 10-34-0 with 4000 ml of water. Treated plants received 100 ml of the zinc stock solution.
(§7) (D). The mixture of IDS chelated micronutrients was prepared by adding 4 ml of 9% Zinc, 1 ml of 5% Copper, 1 ml of 5% manganese, and 1 ml of 5% Iron. This mixture was then blended with 4000 ml of water and 50 ml of 10-34-0.
as §3

Wheat [5] = assay: Soil applied IDS chelated minerals with 10-34-0, tissue analysis, wheat; assay type: in vivo
Procedure: as §1, §4, §5, §6, §7, §3

Corn [6] = assay: Soil applied IDS chelated minerals with 10-34-0, tissue analysis, corn; assay type: in vivo
Procedure: as §1, §4, §5, §6, §7, §3

[7] = Iron chelation, clear solution / precipitate test; assay type: physicochemical; conditions: for appearance of solution / precipitates: 500 ml water, 10 ml 1.8 M ferric nitrate, pH 10, 10 grams potassium phosphate
Procedure: A five percent chelated iron solution was prepared by blending 18 ml of water with 100 grams of a (10% Fe) ferric nitrate solution. Once in solution, 82 grams of the compound produced in Example 10 was added.
In 25 ml of water, 20 ml of a 1.8M ferric nitrate was added. Once in solution, 30 ml of the diethanolsuccinamide amino ethanol solution produced in Example 17 was added and the pH of the blend was adjusted to 9.2. Then 1 gram of potassium phosphate was added to the mixture.
Five drops of 1.8 M ferric nitrate were added to one liter of water and mechanically blended. Then 10 grams of potassium phosphate were added to the solution and allowed to form insoluble potassium salts.
In 400 ml of water, 20 ml of a 10% ferric nitrate solution were added, and 20 ml of the product from example 25 were added. With mechanical stirring, 40 grams of monopotassium phosphate was added the mix. The pH of the solution was then adjusted to 2 with HCl. The pH of the solution was then gradually raised with the addition of base to a pH of 10.
In 400 ml of water, 10 ml of 1.8 M ferric nitrate solution were added and 20 ml of the product from example 28 were added. With mechanical stirring, 20 grams of monopotassium phosphate was added to the mix. The pH of the solution was then adjusted to 2 with HCL. The pH of the solution was then gradually raised with the addition of Monoethanolamine to a pH of 10.
To a beaker containing one liter of water, 20 grams of potassium phosphate were added to form a clear solution.
Thirty grams of 1.8 M ferric nitrate were added to 100 ml of water. The pH of the solution was lowered to 4 with phosphorous acid, and then 5 grams of Potassium phosphate were then added to the blend. Later 30 ml of the solution produced in example 29 was added.
One hundred ml of the solution prepared in Example 41 was added to 500 ml of water and blended. 10 ml of 1.8-M ferric nitrate was then added to the mixture. […] The potassium salt of maleic acid was tested as a chelating agent.
In a separate flask 20 grams of maleic anhydride were blended in 500 ml of water. Potassium hydroxide was then added to the blend to raise the pH to 10. Later ten ml of 1.8M ferric nitrate was added to the mix and 10 grams of potassium phosphate was also blended in. […] The contents of the flask were then blended again while MEA was added to the mix.

pepper plants = assay: IDS versus EDTA chelates applied to the soil of pepper plants, tissue analysis; assay type: in vivo
Procedure: Below is the protocol and tissue analysis for the soil-applied iminodisuccinate and EDTA chelated mineral salts. Treatments: Control—no fertilizer 15-30-15 (fertilizer) alone 15-30-15 plus Cu IDS […] 15-30-15 plus Mn IDS […] 15-30-15 plus Zn IDS […] The standard fertilizer contained no micronutrients. Fertilizer was Hyponex 15-30-15. Each treatment was replicated 3 times. Soil treatments were applied as 50 ml per of the dilute blend of this invention. The pepper plants were transplanted into 1-gallon containers and grown until a suitable size. Plants were treated with the soil-applied chelate. Tissue samples were taken 30 days after the soil treatment had been applied. […] One gallon of fertilizer was poured over three replications of each set in the trial.

Compound: [Mn+2]
manganese in plant tissue, TREATED (Corn [1]; harvested 30 days after planting, control 99.1): 310 parts per million | manganese in plant tissue, CHANGE (Corn [1]; treated minus control 99.1): 210.9 parts per million | manganese in plant tissue, % change (Corn [1]; versus control 99.1): 213% | manganese in plant tissue, TREATED (Wheat [2]; harvested 30 days after planting, control 72.1): 379 parts per million | manganese in plant tissue, CHANGE (Wheat [2]; treated minus control 72.1): 306.9 parts per million | manganese in plant tissue, TREATED (Clover [3]; harvested 30 days after planting, control 168): 510 parts per million | manganese in plant tissue, CHANGE (Clover [3]; treated minus control 168): 342 parts per million | manganese in plant tissue, TREATED (Soybean; harvested 30 days after planting, control 230): 544 parts per million | manganese in plant tissue, CHANGE (Soybean; treated minus control 230): 314 parts per million | manganese in plant tissue, % change (Soybean; versus control 230): 137% | manganese in plant tissue, TREATED (Clover [4]; soil applied with 10-34-0, harvested 30 days after planting, control 154): 98.4 | manganese in plant tissue, TREATED (Wheat [5]; soil applied with 10-34-0, harvested 30 days after planting, control 71.8): 76.2 | manganese in plant tissue, CHANGE (Wheat [5]; soil applied, treated minus control 71.8): 4.4 | manganese in plant tissue, % change (Wheat [5]; soil applied, versus control 71.8): 6% | manganese in plant tissue, TREATED (Corn [6]; soil applied with 10-34-0, harvested 30 days after planting, control 128): 80.1

Compound: O=C([O-])CC(C(=O)[O-])N(CCO)C(CC(=O)[O-])C(=O)[O-].[K+].[K+].[K+].[K+] (stereo not drawn) [Example 41, N,N-disuccinic-amino-ethanol tetra potassium salt]
appearance of solution / precipitates [7]: orange-red clear solution without precipitates

Compound: NCCO [MEA, monoethanolamine, reference compound]
redissolution of the precipitate on adding MEA ([7]; MEA added to the potassium maleate / ferric nitrate / potassium phosphate mix at pH 10): The precipitate never went back into solution

appearance of solution / precipitates [7]: a rust colored solid precipitated
Compound: O=C([O-])/C=C\C(=O)[O-].[K+].[K+] [potassium salt of maleic acid, reference compound]

Compound: COPPER
copper in plant tissue, TREATED (Corn [1]; harvested 30 days after planting, control 5.2): 300 parts per million | copper in plant tissue, CHANGE (Corn [1]; treated minus control 5.2): 294.8 parts per million | copper in plant tissue, % change (Corn [1]; versus control 5.2): 5669% | copper in plant tissue, TREATED (Wheat [2]; harvested 30 days after planting, control 10.8): 157 parts per million | copper in plant tissue, CHANGE (Wheat [2]; treated minus control 10.8): 146.2 parts per million | copper in plant tissue, TREATED (Clover [3]; harvested 30 days after planting, control 9.64): 227 parts per million | copper in plant tissue, CHANGE (Clover [3]; treated minus control 9.64): 217.36 parts per million | copper in plant tissue, TREATED (Soybean; harvested 30 days after planting, control 4.74): 937 parts per million | copper in plant tissue, CHANGE (Soybean; treated minus control 4.74): 932.26 parts per million | copper in plant tissue, TREATED (Clover [4]; soil applied with 10-34-0, harvested 30 days after planting, control 8.91): 20.2 | copper in plant tissue, CHANGE (Clover [4]; soil applied, treated minus control 8.91): 11.29 | copper in plant tissue, % change (Clover [4]; soil applied, versus control 8.91): 127% | copper in plant tissue, TREATED (Wheat [5]; soil applied with 10-34-0, harvested 30 days after planting, control 6.79): 12.1 | copper in plant tissue, CHANGE (Wheat [5]; soil applied, treated minus control 6.79): 5.31 | copper in plant tissue, % change (Wheat [5]; soil applied, versus control 6.79): 78% | copper in plant tissue, TREATED (Corn [6]; soil applied with 10-34-0, harvested 30 days after planting, control 5.43): 11.7 | copper in plant tissue, CHANGE (Corn [6]; soil applied, treated minus control 5.43): 6.27 | copper in plant tissue, % (Corn [6]; soil applied, versus control 5.43): 115%

Compound: EDTA [reference compound]
copper in tissue, TREATED (pepper plants; soil applied with 15-30-15, tissue 30 days after treatment, control 8.0): 12.9 | TREATED (dry weight) (pepper plants; soil applied, control 4.8): 6.2 | TREATED DRY (pepper plants; soil applied, dry weight, CONTROL DRY 4.8): 6.1 | copper in tissue, TREATED ADJUSTED (pepper plants; soil applied, tissue level times dry weight, control adjusted 38.08): 80.03 | copper in tissue, CHANGE IN (adjusted) (pepper plants; soil applied, treated adjusted minus control adjusted 38.08): 41.95 | CHANGE IN WEIGHT (pepper plants; soil applied, treated dry minus control dry 4.8): 1.36 | copper in tissue, % CHANGE (adjusted) (pepper plants; soil applied, versus control adjusted 38.08): 110% | % CHANGE (dry weight) (pepper plants; soil applied, versus control dry 4.8): 29%

Compound: IRON
iron in plant tissue, TREATED (Corn [1]; harvested 30 days after planting, control 36.9): 494 parts per million | iron in plant tissue, CHANGE (Corn [1]; treated minus control 36.9): 457.1 parts per million | iron in plant tissue, % change (Corn [1]; versus control 36.9): 1239% | iron in plant tissue, TREATED (Wheat [2]; harvested 30 days after planting, control 94.5): 334 parts per million | iron in plant tissue, CHANGE (Wheat [2]; treated minus control 94.5): 239.5 parts per million | iron in plant tissue, TREATED (Clover [3]; harvested 30 days after planting, control 130): 731 parts per million | iron in plant tissue, CHANGE (Clover [3]; treated minus control 130): 601 parts per million | iron in plant tissue, TREATED (Soybean; harvested 30 days after planting, control 111): 557 parts per million | iron in plant tissue, CHANGE (Soybean; treated minus control 111): 446 parts per million | iron in plant tissue, % change (Soybean; versus control 111): 402% | iron in plant tissue, TREATED (Clover [4]; soil applied with 10-34-0, harvested 30 days after planting, control 143): 224 | iron in plant tissue, CHANGE (Clover [4]; soil applied, treated minus control 143): 81 | iron in plant tissue, % change (Clover [4]; soil applied, versus control 143): 57% | iron in plant tissue, TREATED (Wheat [5]; soil applied with 10-34-0, harvested 30 days after planting, control 79.3): 90.9 | iron in plant tissue, CHANGE (Wheat [5]; soil applied, treated minus control 79.3): 11.6 | iron in plant tissue, % change (Wheat [5]; soil applied, versus control 79.3): 15% | iron in plant tissue, TREATED (Corn [6]; soil applied with 10-34-0, harvested 30 days after planting, control 45.4): 82.2 | iron in plant tissue, CHANGE (Corn [6]; soil applied, treated minus control 45.4): 36.8 | iron in plant tissue, % (Corn [6]; soil applied, versus control 45.4): 81%
